# Results reported in patent publication US9527830B2 (Merck Sharp & Dohme Corp., priority 2011, dated 2016).
# Tests used:
# [1] = molecular target: T1, hROMK1 (Kir1.1) (Homo sapiens, UniProt P48048); assay: ^86Rb^+ Efflux Assay; type: cell-based; details: CHO-DHFR- cells stably expressing hROMK1; potency ranges
# T1 construct: expressed in transfected cells
# T1 sequence (P48048 1-391): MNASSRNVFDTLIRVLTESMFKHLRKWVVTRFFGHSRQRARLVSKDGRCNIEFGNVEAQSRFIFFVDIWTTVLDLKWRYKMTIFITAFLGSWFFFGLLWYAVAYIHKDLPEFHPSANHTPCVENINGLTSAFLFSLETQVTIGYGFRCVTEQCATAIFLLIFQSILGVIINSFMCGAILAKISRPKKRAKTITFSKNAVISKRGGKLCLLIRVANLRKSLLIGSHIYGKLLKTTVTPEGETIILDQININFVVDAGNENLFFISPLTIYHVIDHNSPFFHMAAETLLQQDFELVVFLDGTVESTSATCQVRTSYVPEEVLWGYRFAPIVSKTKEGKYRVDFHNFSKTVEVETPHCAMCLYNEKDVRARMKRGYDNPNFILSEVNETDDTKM
# [2] = molecular target: T2, hROMK (hKir1.1) (Homo sapiens, UniProt P48048); assay: Thallium Flux Assay (FluxOR, FLIPR-Tetra); type: cell-based; details: HEK293 cells stably expressing hROMK; potency ranges
# T2 construct: expressed in transfected cells
# T2 sequence (P48048 1-391): T1 sequence (P48048 1-391)
# Procedure: Several assays may be used to measure functional inhibition of the ROMK channel by compounds of the instant invention. One primary assay that can be used is a functional ^86Rb^+ efflux assay that measures the ability of ROMK to permeate ^86Rb^+, in the absence or presence of test compound. Under control conditions, cells loaded with ^86Rb^+ and incubated in Rb^+-free medium display a time-dependent efflux of the isotope, the rate of which depends on number of functional channels. When cells are incubated in the presence of a channel inhibitor, efflux of ^86Rb^+ is prevented in a concentration-dependent manner, and IC50 values of inhibition by compounds can be accurately determined. This assay has been established with cell lines expressing either human, rat or dog ROMK channels, and can operate in 96- or 384-well format. Importantly, the human, rat, and dog ^86Rb^+ efflux assays can be carried out in the presence of up to 100% serum allowing, therefore, an accurate estimation of the effect of protein binding on the inhibitory activity of compounds of interest. Another ROMK functional assay makes use of the ability of thallium to permeate through open ROMK channels and increase the fluorescence of a dye previously loaded into the cells. Under control conditions, cells loaded with dye and exposed to thallium-containing medium display a time-dependent increase in fluorescence, the rate of which depends on number of functional channels. When cells are incubated in the presence of a channel inhibitor, the increase in fluorescence is attenuated in a concentration-dependent manner, and IC50 values of inhibition by compounds can be accurately determined. This assay has been established with cell lines expressing either human, or rat ROMK channels, and operates in 384-well format. Another assay for evaluation of the compounds of the instant invention and for evaluation of mechanism of action of compounds of Formula I relies on the measurement of the electrical current that is generated as potassium permeates through the channel. For these electrophysiological experiments, three different platforms, IonWorks, QPatch, or manual patch clamp, are used, depending on the experimental protocol under consideration. IonWorks operates in a 384-well format and allows accurate determination of IC50 values for inhibitors.
# HEK293 cells stably expressing hROMK (hKir1.1) were grown at 37° C. in a 10% CO2 humidified incubator in complete growth media: Dulbecco's Modified Eagle Medium supplemented with non-essential amino acids, Penicillin/Streptomycin/Glutamine, G418 and FBS. At >80% confluency, media was aspirated from the flask and rinsed with 10 ml Calcium/Magnesium-free PBS. 5 ml of 1× trypsin (prepared in Ca/Mg Free PBS) was added to T-225 flask and flask returned to 37° C./CO2 incubator for 2-3 minutes. To dislodge the cell, the side of the flask was gently banged by hand. Cells were completely triturated and then transferred to 25 ml complete media, and centrifuged at 1,500 rpm for 6 min followed by resuspension in complete growth media and cell concentration determined. For typical re-seeding, 4E6 cells/T-225 flask attained >80% confluency in 4 days. Under ideal growth conditions and appropriate tissue culture practices, this cell line was stable for 40-45 passages.
# FluxOR™ Kit Components (Invitrogen F10017)
# • FluxOR™ Reagent (Component A) • FluxOR™ Assay Buffer (Component B)—10× Concentrate • PowerLoad™ Concentrate (Component C)—100× Concentrate • Probenecid (Component D)—Lyophilized sample was kept at −20° C. Water soluble, 100× after solubilization in 1 ml water. Store at 4° C. • FluxOR™ Chloride-free Buffer (Component E)—5× Concentrate • Potassium sulfate (K2SO4) Concentrate (Component F)—125 mM in water. Stored at 4° C. • Thallium sulfate (Tl2SO4) Concentrate (Component G)—50 mM in water. […]
IC50 [1],IC50 [2],Compound
≤ 200 nM,≤ 100 nM,"Cc1c(C(O)CC2CCN(C[C@H](O)c3ccc4c(c3C)COC4=O)CC2)ccc2c1COC2=O (stereo partly drawn) [Example 86, 5-[(1R)-1-Hydroxy-2-{4-[2-hydroxy-2-(4-methyl-1-oxo-1,3-dihydro-2-benzofuran-5-yl)ethyl]piperidin-1-yl}ethyl]-4-methyl-2-benzofuran-1(3H)-one]"
≤ 500 nM,≤ 200 nM,"Cc1c(CCN2CCC(NCc3ccc4nonc4c3)CC2)ccc2c1COC2=O [Example 89, 5-(2-{4-[(2,1,3-Benzoxadiazol-5-ylmethyl)amino]piperidin-1-yl}ethyl)-4-methyl-2-benzofuran-1(3H)-one]"
